Data taken from ChEMBL document CHEMBL4622979, “Non-rigid Diarylmethyl Analogs of Baloxavir as Cap-Dependent Endonuclease Inhibitors of Influenza Viruses” (J Med Chem, 2020).

What was measured:
[1] = Oral bioavailability in CD1 mouse assessed as (12aR)-12-[(S)-(3,4-Difluorophenyl)(phenyl)methyl]-7-hydroxy3,4,12,12a-tetrahydro-1H-[1,4]oxazino[3,4-c]pyrido[2,1-f ][1,2,4]triazine-6,8-dione level at 15 mg/kg administered as single dose by LC-MS/MS analysis; assay type: ADME, organism-based; conditions: in vivo
[2] = Cmax in CD1 mouse plasma assessed as (12aR)-12-[(S)-(3,4-Difluorophenyl)(phenyl)methyl]-7-hydroxy3,4,12,12a-tetrahydro-1H-[1,4]oxazino[3,4-c]pyrido[2,1-f ][1,2,4]triazine-6,8-dione level at 15 mg/kg, po administered as single dose by LC-MS/MS analysis; assay type: ADME, organism-based; set-up: dose 15 mg/kg, route oral; conditions: in vivo
[3] = AUClast in CD1 mouse plasma assessed as (12aR)-12-[(S)-(3,4-Difluorophenyl)(phenyl)methyl]-7-hydroxy3,4,12,12a-tetrahydro-1H-[1,4]oxazino[3,4-c]pyrido[2,1-f ][1,2,4]triazine-6,8-dione level at 15 mg/kg, po administered as single dose by LC-MS/MS analysis; assay type: ADME, organism-based; set-up: dose 15 mg/kg, route oral, time 0 - last; conditions: in vivo
[4] = Cmax in CD1 mouse lung assessed as (12aR)-12-[(S)-(3,4-Difluorophenyl)(phenyl)methyl]-7-hydroxy3,4,12,12a-tetrahydro-1H-[1,4]oxazino[3,4-c]pyrido[2,1-f ][1,2,4]triazine-6,8-dione level at 15 mg/kg, po administered as single dose by LC-MS/MS analysis; assay type: ADME, organism-based; set-up: dose 15 mg/kg, route oral; conditions: in vivo
[5] = AUClast in CD1 mouse lung assessed as (12aR)-12-[(S)-(3,4-Difluorophenyl)(phenyl)methyl]-7-hydroxy3,4,12,12a-tetrahydro-1H-[1,4]oxazino[3,4-c]pyrido[2,1-f ][1,2,4]triazine-6,8-dione level at 15 mg/kg, po administered as single dose by LC-MS/MS analysis; assay type: ADME, organism-based; conditions: in vivo
[6] = Ratio of Cmax in CD1 mouse lung to plasma assessed as (12aR)-12-[(S)-(3,4-Difluorophenyl)(phenyl)methyl]-7-hydroxy3,4,12,12a-tetrahydro-1H-[1,4]oxazino[3,4-c]pyrido[2,1-f ][1,2,4]triazine-6,8-dione level at 15 mg/kg, po administered as single dose by LC-MS/MS analysis; assay type: ADME, organism-based; conditions: other tissue
[7] = Ratio of AUClast in CD1 mouse lung to plasma assessed as (12aR)-12-[(S)-(3,4-Difluorophenyl)(phenyl)methyl]-7-hydroxy3,4,12,12a-tetrahydro-1H-[1,4]oxazino[3,4-c]pyrido[2,1-f ][1,2,4]triazine-6,8-dione level at 15 mg/kg, po administered as single dose by LC-MS/MS analysis; assay type: ADME, organism-based; conditions: other tissue
[8] = Stability in simulated gastric fluid assessed as parent compound remaining at 1 uM measured after 4 hrs at pH 1.2 by LC-MS/MS analysis; assay type: physicochemical; conditions: read-out: Stability
[9] = Stability in simulated intestinal fluid assessed as parent compound remaining at 1 uM measured after 4 hrs at pH 1.2 by LC-MS/MS analysis; assay type: physicochemical; conditions: read-out: Stability

Structure (SMILES): COC(=O)OCOc1c2n(ccc1=O)N([C@@H](c1ccccc1)c1ccc(F)c(F)c1)[C@@H]1COCCN1C2=O
- F [1]: 29.9%
- Cmax [2]: 397 ng/mL
- AUClast [3]: 2078 ng·h/mL
- Cmax [4]: 1476 ng/g
- AUClast [5]: 8806 ng·h/g
- Ratio [6]: 3.7
- Ratio AUC [7]: 4.2
- remaining at 4 h, 1 µM [8]: 97.7%
- remaining at 4 h, 1 µM [9]: 95.8%
